# Experimental data: ChEMBL document CHEMBL1201862, “PubChem BioAssay data set” (2004)
#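 In this assay, cells in 96-well plates receive the compound at five concentrations for 48 hours. Endpoints are linearly interpolated between the surrounding concentrations. GI50 is the concentration that inhibits growth by half.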 Active and inactive are the calls of the source. Rule as the data show it: active = GI50 up to about 1.1 µM and inactive = higher.
# Legend:
# Experiment in all cases: NCI anticancer screen, dose series, 48 h
# [1] = system: SN12C
# [2] = system: HT-29
# [3] = system: TK-10
# [4] = system: SF-268
# [5] = system: OVCAR-4
# [6] = system: HCC 2998
# [7] = system: KM12
# [8] = system: SW-620
# [9] = system: HOP-62
# [10] = system: EKVX
# [11] = system: KM-20L2
# [12] = system: K562
# [13] = system: UACC-257
# [14] = system: SF-539
# [15] = system: SK-MEL-28
# [16] = system: U-251
SMILES,GI50 [1],GI50 [2],GI50 [3],GI50 [4],GI50 [5],GI50 [6],GI50 [7],GI50 [8],GI50 [9],GI50 [10],GI50 [11],GI50 [12],GI50 [13],GI50 [14],GI50 [15],GI50 [16]
C1C[N+]23CCC[N+]2(C1)CCC3 (centres undefined),> 100 µM (inactive),> 100 µM (inactive),> 100 µM (inactive),> 100 µM (inactive),> 100 µM (inactive),> 100 µM (inactive),> 100 µM (inactive),> 100 µM (inactive),> 100 µM (inactive),> 100 µM (inactive),> 100 µM (inactive),> 100 µM (inactive),> 100 µM (inactive),> 100 µM (inactive),> 100 µM (inactive),> 100 µM (inactive)
O=C1C(=O)C(Br)(Br)C(Br)=C1Br,23.7 µM (inactive),19 µM (inactive),19.4 µM (inactive),> 10 µM (inactive),22.4 µM (inactive),20.5 µM (inactive),12.9 µM (inactive),13.8 µM (inactive),> 100 µM (inactive),25.4 µM (inactive),15 µM (inactive),20 µM (inactive),20.3 µM (inactive),19 µM (inactive),15.6 µM (inactive),25.2 µM (inactive)
O=C(OCCOCCOC(=O)c1c[nH]cc1-c1ccccc1)c1c[nH]cc1-c1ccccc1,18.1 µM (inactive),18.8 µM (inactive),30.3 µM (inactive),15.5 µM (inactive),18.3 µM (inactive),21.9 µM (inactive),20.2 µM (inactive),28.4 µM (inactive),17.3 µM (inactive),26.7 µM (inactive),21.9 µM (inactive),28.9 µM (inactive),18.7 µM (inactive),17.9 µM (inactive),–,17.9 µM (inactive)
CCO/C([O-])=C(\C(=O)c1ccccc1)[n+]1c(C)n(C)c2ccccc21,–,> 100 µM (inactive),> 100 µM (inactive),> 100 µM (inactive),> 100 µM (inactive),> 100 µM (inactive),> 100 µM (inactive),> 100 µM (inactive),> 100 µM (inactive),> 100 µM (inactive),> 100 µM (inactive),> 100 µM (inactive),> 100 µM (inactive),> 100 µM (inactive),> 100 µM (inactive),> 100 µM (inactive)
Cc1ccc(C)c(N2C(=O)C(=O)C(c3nc4ccccc4s3)/C(=N\c3cccc4c(=O)[nH][nH]c(=O)c34)C2=O)c1 (centres undefined),> 100 µM (inactive),> 100 µM (inactive),> 100 µM (inactive),> 100 µM (inactive),88.5 µM (inactive),> 100 µM (inactive),> 100 µM (inactive),> 100 µM (inactive),> 100 µM (inactive),> 100 µM (inactive),> 100 µM (inactive),> 100 µM (inactive),> 100 µM (inactive),91.8 µM (inactive),> 100 µM (inactive),> 100 µM (inactive)
C[Si](C)(C)OC1CC(=O)OC1n1cc(F)c(=O)[nH]c1=O (centres undefined),40 µM (inactive),8.32 µM (inactive),> 100 µM (inactive),50.7 µM (inactive),> 28.4 µM (inactive),0.759 µM (active),18.1 µM (inactive),24.2 µM (inactive),15.7 µM (inactive),8.18 µM (inactive),16.2 µM (inactive),26.4 µM (inactive),> 64.3 µM (inactive),2.58 µM (inactive),15.8 µM (inactive),43 µM (inactive)
Cc1nn(C(=O)CC(=O)Nc2ccc(Cl)cc2)c(C)c1/N=N/c1ccccc1C(=O)O,> 100 µM (inactive),> 100 µM (inactive),> 100 µM (inactive),> 100 µM (inactive),> 100 µM (inactive),> 100 µM (inactive),> 100 µM (inactive),> 100 µM (inactive),> 100 µM (inactive),> 100 µM (inactive),> 100 µM (inactive),> 100 µM (inactive),> 100 µM (inactive),> 100 µM (inactive),> 100 µM (inactive),> 100 µM (inactive)
N#CNc1nc(N)c(-c2ccc(Cl)cc2)c(C(=O)Nc2nccs2)n1,> 100 µM (inactive),> 100 µM (inactive),> 100 µM (inactive),> 100 µM (inactive),> 100 µM (inactive),> 100 µM (inactive),> 100 µM (inactive),> 100 µM (inactive),> 100 µM (inactive),> 100 µM (inactive),> 100 µM (inactive),> 100 µM (inactive),> 100 µM (inactive),> 100 µM (inactive),> 100 µM (inactive),> 100 µM (inactive)
CCCCNC(=O)CCN(C(=O)O)S(=O)(=O)c1ccc(NC(=O)c2ccccc2)cc1,> 100 µM (inactive),22 µM (inactive),> 100 µM (inactive),> 100 µM (inactive),> 100 µM (inactive),> 100 µM (inactive),> 100 µM (inactive),14 µM (inactive),> 100 µM (inactive),> 100 µM (inactive),> 100 µM (inactive),37 µM (inactive),> 100 µM (inactive),> 100 µM (inactive),> 100 µM (inactive),77.6 µM (inactive)
C=C(CCCCC)CN1CCCC1[C@@](C)(O)CC(=O)OCC (some centres undefined),> 100 µM (inactive),> 100 µM (inactive),> 100 µM (inactive),> 100 µM (inactive),> 100 µM (inactive),> 100 µM (inactive),> 100 µM (inactive),> 100 µM (inactive),> 100 µM (inactive),> 100 µM (inactive),> 100 µM (inactive),> 100 µM (inactive),> 100 µM (inactive),> 100 µM (inactive),> 100 µM (inactive),> 100 µM (inactive)
COC(=O)/C(=N\NC(C)(C)C)C(C(=O)OC)C(=O)C(=O)Nc1cc(Cl)ccc1Cl (centres undefined),> 100 µM (inactive),> 100 µM (inactive),> 100 µM (inactive),> 100 µM (inactive),> 100 µM (inactive),> 100 µM (inactive),> 100 µM (inactive),> 100 µM (inactive),> 100 µM (inactive),> 100 µM (inactive),> 100 µM (inactive),> 100 µM (inactive),> 100 µM (inactive),> 100 µM (inactive),> 100 µM (inactive),> 100 µM (inactive)
Cc1nc2c(s/c(=N\N)n2-c2ccccc2)c(=O)n1C,> 100 µM (inactive),> 100 µM (inactive),> 100 µM (inactive),> 100 µM (inactive),> 100 µM (inactive),> 100 µM (inactive),80.2 µM (inactive),> 100 µM (inactive),–,> 100 µM (inactive),> 100 µM (inactive),> 100 µM (inactive),> 100 µM (inactive),> 100 µM (inactive),> 100 µM (inactive),> 100 µM (inactive)
